System: Bactrocera oleae
Assay: Courtship of male Bactrocera oleae towards females, olfactory exposure
Format: in vivo
Protocol: 1. […] Insect Behay. 2012 [6] and Menage Cindy, personal communication). Naive males were isolated in tubes, individually, upon emerging from their puparium. The females were selected to be virgin and were stored in tubes, together. These tubes were placed in an inclined manner in incubators, for which a temperature of 25° C. was kept constant. A 12 hour/12 hour day/night cycle was applied. […] Each alveolus was cylindrical, transparent and closed, and of a volume of 5.9 cm^3. FIG. 16 is a schematic representation of an alveolus of the device used. • The papers were then each soaked in […] of a composition of 2%, 4% or 5% propionic acid. A gauze (netting) made it possible to physically isolate the B. ° lea from the odor corresponding to the propionic acid. 2 pairs (one per alveolus) were observed independently. Each pair was made up of one male and one female, each originating from the tubes mentioned above. • The behavior was filmed for 10 minutes, under white light, using a Basler acA1920-155 um USB 3.0 camera. Each film was recorded (Basler Video Recording Software V1.3) and then analyzed. For each concentration of the compositions used, the number of pairs of flies was, respectively, 2, 5, 2, 2, 2 and 6, 6, 4, 4. • A negative control was carried out comprising only the solvent, i.e. paraffin oil, in order to verify the absence of an effect of the solvent on the flies.
A courtship percentage was calculated, and represents the time during which the male courts the female during the 10 minutes of observation (recording). The different steps consist in movement of the wings (rapid “buzzing” and/or vertical vibrations), face movements, lateral movements, “dances” in rapid circles and in the direction of the female (Benelli, J. Insect Beahv 2012 [6] and Ménagé Cindy, personal communication).

For CCC(=O)O [propionic acid], the “courtship of males towards females” value (2% in solvent, flies aged 3 to 6 days, compared with solvent alone) was “significantly reduced”, the “courtship of males towards females” value (2% in solvent, flies aged 13 to 19 days, compared with solvent alone) was “significantly reduced” and the “courtship of males towards females” value (4% in solvent, flies aged 3 to 6 days) was “virtually nonexistent”. The “courtship of males towards females” value (5% in solvent, flies aged 3 to 6 days) was “virtually nonexistent” and the “courtship of males towards females” value (5% in solvent, flies aged 13 to 19 days, compared with solvent alone) was “significantly reduced”.
